# Experimental data reported in US9353101B2 (Merck Sharp & Dohme Corp., priority 2012, dated 2016).
# Biological target: CETP (Homo sapiens (Human), UniProt P11597)
# Experiment: In vitro radioactive assay of CETP-catalyzed CE and TG transfer (RTA assay), 95% human serum
# Type: biochemical
# Details: RTA assay in 95% human serum; read-out: RTA IC50 (CETP Inhibition)
# Description: In Vitro Radioactive Assays of CETP-Catalyzed CE and TG Transfer (RTA Assay)
# Reagents and sources are: [3H] cholesteryl oleate (GE #TRK.886), [3H] Triolein (Perkin-Elmer NET-431), Butylated hydroxyl toluene (Aldrich, #D4740-4), DOPC (Sigma, # P6354), Sodium Bromide (Fisher scientific #S255-500), PEG 8000 (Fisher, #BP233-1), and human HDL (Intracel Corp #RP-036).
# An in vitro assay for determining IC50's to identify compounds that inhibit CETP transfer activity is performed based on a modification of a published method (Morton and Zilversmit, (1981) A plasma inhibitor of triglyceride and cholesteryl ester transfer activities, J. Biol. Chem. 256(23), 11992-11995). The ability of inhibitors to alter CETP activity is performed using two different assays: one using recombinant CETP and one using an endogenous plasma source of CETP. Both assays measure the transfer of [3H] cholesteryl oleate or [3H] triolein from exogenous LDL to HDL.
# Radiolabeled donor particles are generated by first combining 100 μl of 200 μM butylated hydroxyl toluene in CHCl3, 216 μL of 21.57 mM DOPC in EtOH, and either 500 μCi [3H]-triolein (Perkin Elmer #NET-431) or 500 μCi [3H]-cholesteryl oleate (GE #TRK886) in a glass tube. Reagents are mixed, dried under nitrogen, and then resuspended in 2 mL of 50 mM Tris, 27 μM EDTA at pH 7.4. After a brief vortex, the solution is sonicated until clear and mixed with 20 mL of fresh human serum. The mixture is incubated overnight at 37° C. The [3H] labeled LDL substrate is separated at 1.063 g/ml density by sequential ultracentrifugal flotation in NaBr according to the method by (Havel, Eder et al. 1955; Chapman, Goldstein et al. 1981). Once isolated the particles are dialyzed 3× in CETP buffer (50 mM Tris, pH 7.4, 100 mM NaCl, 1 mM EDTA). Human HDL is purchased from Intracel and used as the acceptor particles.
# Transfer assays are performed in a 96 or 384-well v-bottom polypropylene plate. For the RTA using recombinant CETP (2% RTA), an assay cocktail is prepared with the final concentrations 128 μg/mL HDL, 20 nM rCETP, 2% human serum, and 1×CETP buffer. 1 μL of each test compound diluted in DMSO is added to 47 μL of assay cocktail per well and incubated at 37° C. for 1 hour. To initiate the transfer reaction, 2 μL radiolabeled LDL is added. After an additional 60 min of incubation at 37° C., the transfer action is terminated by precipitation of LDL with an equal volume of 20% W/V PEG 8000. The plates are centrifuged at 2000 rpm for 30 minutes at 4° C. A 40 μL aliquot of the HDL-containing supernatant is transferred to a Packard Optiplate™ with 200 μL of MicroScint™ 20. After mixing, plates are counted by liquid scintillation. Counts present in the supernatant for blanks (wells containing only HDL acceptor, CETP buffer and DMSO) are subtracted from those containing test compounds and used to correct for non-specific transfer.
# For the transfer assay using endogenous CETP from serum (95% RTA), the same procedure is used except that human serum is added such that a final concentration of serum of 95% of the total assay volume is achieved, yielding a concentration of approximately 15 nM endogenous CETP in the assay. This is then combined with HDL and CETP buffer and the reaction proceeds as above and is terminated as described.
# Comparison of the counts of samples with inhibitors to an uninhibited (DMSO only) positive control yield a percent inhibition. A plot of percent inhibition vs. log of inhibitor concentration, fit to a Sigmoidal 4 parameter equation is used to calculate IC50.
# Starting materials are commercially available or are made using known procedures or as shown below. The examples may be synthesized using the general schemes provided below. The data reported for the examples below were obtained using the RTA assay in 95% human serum.
# CETP, sequence (P11597 18-493 limits assumed): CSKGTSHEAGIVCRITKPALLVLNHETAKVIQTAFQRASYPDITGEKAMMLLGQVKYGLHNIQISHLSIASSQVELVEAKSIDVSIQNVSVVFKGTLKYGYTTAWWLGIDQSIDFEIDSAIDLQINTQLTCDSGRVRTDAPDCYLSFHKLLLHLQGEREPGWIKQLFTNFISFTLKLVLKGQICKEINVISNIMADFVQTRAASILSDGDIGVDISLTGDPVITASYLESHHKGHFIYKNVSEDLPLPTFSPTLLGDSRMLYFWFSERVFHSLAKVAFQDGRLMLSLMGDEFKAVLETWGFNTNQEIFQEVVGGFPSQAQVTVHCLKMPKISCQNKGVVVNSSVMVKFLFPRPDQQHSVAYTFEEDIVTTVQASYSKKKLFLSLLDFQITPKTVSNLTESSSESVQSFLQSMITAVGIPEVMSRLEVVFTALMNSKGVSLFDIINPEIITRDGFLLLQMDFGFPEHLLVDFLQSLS
row,Structure (SMILES),IC50 [nM]
1,COc1ncc(-c2c(C)n[nH]c2C)cc1-c1cnc(N2CC(O)C2)nc1CN1C(=O)O[C@H](c2cc(C(F)(F)F)cc(C(F)(F)F)c2)[C@@H]1C [Example 24],332
2,COc1ncc(CCC(=O)O)cc1-c1cnc(N2CC(F)C2)nc1CN1C(=O)O[C@H](c2cc(C(F)(F)F)cc(C(F)(F)F)c2)[C@@H]1C [Example 8],92
3,COc1ncc(-c2c(C)cc(C(=O)O)cc2C)cc1-c1cnc(N2CC(F)(F)C2)cc1CN1C(=O)O[C@H](c2cc(C(F)(F)F)cc(C(F)(F)F)c2)[C@@H]1C [Example 63],52
4,"COc1ncc(-c2c(C)n[nH]c2C)cc1-c1cnc(N2CC(F)C2)nc1CN1C(=O)O[C@H](c2cc(C(F)(F)F)cc(C(F)(F)F)c2)[C@@H]1C [Example 17, (4S,5R)-5-[3,5-Bis(trifluoromethyl)phenyl]-3-({5-[5-(3,5-dimethyl-1H-pyrazol-4-yl)-2-methoxypyridin-3-yl]-2-(3-fluoroazetidin-1-yl)pyrimidin-4-yl}methyl)-4-methyl-1,3-oxazolidin-2-one]",5
5,COc1ncc(-c2c(C)nn(CC#N)c2C)cc1-c1cnc(N2CC(F)C2)nc1CN1C(=O)O[C@H](c2cc(C(F)(F)F)cc(C(F)(F)F)c2)[C@@H]1C [Example 21],18
6,"COc1ncc(-c2ccc(C(=O)O)cc2C)cc1-c1cnc(N2CC(F)C2)nc1CN1C(=O)O[C@H](c2cc(C(F)(F)F)cc(C(F)(F)F)c2)[C@@H]1C [Example 36, 4-{5-[4-({(4S,5R)-5-[3,5-Bis(trifluoromethyl)phenyl]-4-methyl-2-oxo-1,3-oxazolidin-3-yl}methyl)-2-(3-fluoroazetidin-1-yl)pyrimidin-5-yl]-6-methoxypyridin-3-yl}-3-methylbenzoic acid]",12
7,COc1ncc(-c2c(C)cc(C(=O)O)cc2C)cc1-c1ccc(N2CC(F)(F)C2)nc1CN1C(=O)O[C@H](c2cc(C(F)(F)F)cc(C(F)(F)F)c2)[C@@H]1C [Example 58],7
8,"COc1ncc(-c2c(C)cc(-c3n[nH]c(=O)o3)cc2C)cc1-c1cnc(N2CCOCC2)nc1CN1C(=O)O[C@H](c2cc(C(F)(F)F)cc(C(F)(F)F)c2)[C@@H]1C [Example 35, 5-(4-{5-[4-({(4S,5R)-5-[3,5-Bis(trifluoromethyl)phenyl]-4-methyl-2-oxo-1,3-oxazolidin-3-yl}methyl)-2-(morpholin-4-yl)pyrimidin-5-yl]-6-methoxypyridin-3-yl}-3,5-dimethylphenyl)-1,3,4-oxadiazol-2(3H)-one]",10
9,"COc1ncc(-c2ccc(C(=O)O)cc2C)cc1-c1cnc(N2CC(F)(F)C2)nc1CN1C(=O)O[C@H](c2cc(C(F)(F)F)cc(C(F)(F)F)c2)[C@@H]1C [Example 42, 4-{5-[4-({(4S,5R)-5-[3,5-Bis(trifluoromethyl)phenyl]-4-methyl-2-oxo-1,3-oxazolidin-3-yl}methyl)-2-(3,3-difluoroazetidin-1-yl)pyrimidin-5-yl]-6-methoxypyridin-3-yl}-3-methylbenzoic acid]",9
10,"CCCn1nc(C)c(-c2cnc(OC)c(-c3cnc(N4CC(F)C4)nc3CN3C(=O)O[C@H](c4cc(C(F)(F)F)cc(C(F)(F)F)c4)[C@@H]3C)c2)c1C [Example 18, (4S,5R)-5-[3,5-Bis(trifluoromethyl)phenyl]-3-({5-[5-(3,5-dimethyl-1-propyl-1H-pyrazol-4-yl)-2-methoxypyridin-3-yl]-2-(3-fluoroazetidin-1-yl)pyrimidin-4-yl}methyl)-4-methyl-1,3-oxazolidin-2-one]",12
11,COc1ncc(-c2c(C)nn(CC(N)=O)c2C)cc1-c1cnc(N2CC(F)C2)nc1CN1C(=O)O[C@H](c2cc(C(F)(F)F)cc(C(F)(F)F)c2)[C@@H]1C [Example 22],22
12,COc1ncc(-c2c(C)cc(C(=O)OC(C)(C)C)cc2C)cc1-c1ccc(N2CC(F)(F)C2)nc1CN1C(=O)O[C@H](c2cc(C(F)(F)F)cc(C(F)(F)F)c2)[C@@H]1C [Example 57],5
